Measured values reported in article PMC12655551, “Design, Synthesis, and Evaluation of Pyrrole-Based Selective MAO-B Inhibitors with Additional AChE Inhibitory and Neuroprotective Properties Identified via Virtual Screening” (Pharmaceuticals, 2025).

Key:
[1] = test system: isolated rat brain mitochondria; test: t-BuOOH-induced oxidative stress in isolated rat brain mitochondria; assay type: cell-based; conditions: 75 μM, vs non-treated mitochondria
Procedure: (§1) Two types of buffers were used for the isolation of the rat brain synaptosomes and mitochondria. Buffer A was 5 mM HEPES and 0.32 M Sucrose; Buffer B was 290 mM NaCl, 0.95 mM MgCl2 × 2H2O, 10 mM KCl, 2.4 mM CaCl2 × 2H2O, 2.1 mM NaH2PO4, 44 mM HEPES, 13 mM D-Glucose. For the gradient centrifugation, Percoll reagent was used. A stock solution of 90% Percoll was used to prepare 16%, 10% and 7.5% solutions. All the solutions were used as described below. Immediately after harvesting, synaptosomes, microsomes, and mitochondria were incubated with the exam compounds for 1 h. For assessing the possible neurotoxicity of the most MAOB active compounds, the sub-cellular fractions were incubated with 100 µM of them, and for evaluating their possible neuroprotective and antioxidant activities in different models of neurotoxicity, the sub-cellular fractions were incubated with 50µM of them. The protein measurement of all the sub-cellular fractions was made by the method of Lowry et al., 1951 [57].
The mitochondria were prepared by multiple differential fractionation using a Percoll gradient.
The mitochondria were incubated with 75 μM t-BuOOH [57].
After incubation of the mitochondria, 0.3 mL 0.2% TBA and 0.25 mL sulfuric acid (0.05 M) were added to stop the reaction. The tubes were maintained at 100 °C for 30 min. In the next stage, centrifugation of the tubes was carried out at 3500× g for 10 min. Assessment of the total quantity of MDA formed in each sample was measured in the supernatant at 532 nm.
After incubation of mitochondria, 0.04% DTNB was mixed with the mitochondrial suspensions in 0.1 M phosphate buffer (pH 7.4). The absorbance of the yellow product was measured at 412 nm.

[2] = test system: isolated rat brain synaptosomes; test: 6-OHDA-induced neurotoxicity in isolated rat brain synaptosomes; assay type: cell-based; conditions: 150 μM, vs non-treated synaptosomes
Procedure: as §1
The synaptosomes were prepared from rat brains by multiple sub-cellular fractionation using a Percoll gradient.
This in vitro model resembles the neurodegenerative processes occurring in PD. Dopamine metabolism and oxidation led to the formation of reactive oxygen species (ROS) and reactive quinones. These processes were catalyzed by the MAOB enzyme. They induced dopamine neurotoxicity and neurodegeneration. The synaptosomes were incubated with 150 μM 6-OHDA for 1 h.
After the incubation, the synaptosomes were centrifuged three times at 15,000× g for 1 min. MTT-test was performed to determine synaptosomal vitality by the method described by Mungarro-Menchaca et al..
The level of GSH was determined by measuring the non-protein SH-groups after precipitation of the proteins with trichloroacetic acid (TCA). The presence of thiols in the supernatant was determined using Elmman’s reagent. The resulting yellow color was measured spectrophotometrically (λ = 412 nm).

SMILES	decrease of GSH level by the toxic agent alone [1] [%]	increase of MDA production by the toxic agent alone [1] [%]	decrease of GSH level by the toxic agent alone [2] [%]	decrease of synaptosomal viability by the toxic agent alone [2] [%]
CC(C)(C)OO [t-BuOOH, tert-butyl hydroperoxide, reference compound]	50	150		
NCCc1cc(O)c(O)cc1O [Compound 6-OHDA, 6-hydroxydopamine, reference compound]			50	50
